Assays:
[1] = molecular target: D(1A) dopamine receptor (Homo sapiens) (UniProt P21728); assay: D1 (h) Eurofins-Cerep Cellular and Nuclear Receptor Functional Assays; settings: Compound concentration 10.0 uM
[2] = tested on: Tyrosine-protein kinase ABL1 (Homo sapiens), P00519 [H396P]; settings: Compound concentration 1000.0 nM
[3] = tested on: Tyrosine-protein kinase ABL1 (Homo sapiens), P00519 [T315I]; settings: Compound concentration 1000.0 nM
[4] = molecular target: RAC-gamma serine/threonine-protein kinase (Homo sapiens) (UniProt Q9Y243); settings: Compound concentration 1000.0 nM
[5] = molecular target: Aurora kinase A (Homo sapiens) (UniProt O14965); settings: Compound concentration 1000.0 nM
[6] = molecular target: Aurora kinase C (Homo sapiens) (UniProt Q9UQB9); settings: Compound concentration 1000.0 nM
[7] = molecular target: Serine/threonine-protein kinase BRSK2 (Homo sapiens) (UniProt Q8IWQ3); settings: Compound concentration 1000.0 nM
[8] = molecular target: Peripheral plasma membrane protein CASK (Homo sapiens) (UniProt O14936); settings: Compound concentration 1000.0 nM
[9] = molecular target: Macrophage colony-stimulating factor 1 receptor (Homo sapiens) (UniProt P07333); settings: Compound concentration 1000.0 nM
Chain of Macrophage colony-stimulating factor 1 receptor (Homo sapiens) (P07333 whole entry, canonical isoform): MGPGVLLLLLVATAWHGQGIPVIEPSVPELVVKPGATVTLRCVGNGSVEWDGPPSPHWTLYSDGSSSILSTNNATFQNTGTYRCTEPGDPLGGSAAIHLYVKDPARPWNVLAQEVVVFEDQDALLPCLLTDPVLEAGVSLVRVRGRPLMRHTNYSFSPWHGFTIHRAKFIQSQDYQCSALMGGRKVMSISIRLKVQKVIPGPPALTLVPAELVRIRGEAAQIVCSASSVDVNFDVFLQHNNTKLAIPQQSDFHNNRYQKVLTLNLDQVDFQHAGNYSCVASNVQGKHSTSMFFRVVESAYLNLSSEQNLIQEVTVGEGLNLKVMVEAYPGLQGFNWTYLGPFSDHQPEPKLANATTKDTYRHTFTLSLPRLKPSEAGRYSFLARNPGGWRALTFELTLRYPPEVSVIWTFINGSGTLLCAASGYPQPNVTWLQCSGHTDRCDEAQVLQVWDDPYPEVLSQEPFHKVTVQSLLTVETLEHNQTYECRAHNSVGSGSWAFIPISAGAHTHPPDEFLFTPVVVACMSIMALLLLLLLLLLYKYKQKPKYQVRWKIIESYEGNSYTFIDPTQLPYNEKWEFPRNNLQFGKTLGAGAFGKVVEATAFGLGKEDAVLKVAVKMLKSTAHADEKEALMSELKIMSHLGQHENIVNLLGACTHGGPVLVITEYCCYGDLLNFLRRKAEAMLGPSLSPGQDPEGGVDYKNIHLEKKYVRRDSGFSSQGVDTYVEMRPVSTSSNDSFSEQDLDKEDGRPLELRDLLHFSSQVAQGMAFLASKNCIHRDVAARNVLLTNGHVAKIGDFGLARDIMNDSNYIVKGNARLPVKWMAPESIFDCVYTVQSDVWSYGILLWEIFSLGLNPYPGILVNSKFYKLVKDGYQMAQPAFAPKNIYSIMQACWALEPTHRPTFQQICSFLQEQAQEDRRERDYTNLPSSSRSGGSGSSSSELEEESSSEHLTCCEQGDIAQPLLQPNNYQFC

[10] = molecular target: Casein kinase I isoform epsilon (Homo sapiens) (UniProt P49674); settings: Compound concentration 1000.0 nM
[11] = molecular target: Casein kinase I isoform gamma-1 (Homo sapiens) (UniProt Q9HCP0); settings: Compound concentration 1000.0 nM
[12] = molecular target: Ephrin type-A receptor 5 (Homo sapiens) (UniProt P54756); settings: Compound concentration 1000.0 nM
[13] = molecular target: Ephrin type-A receptor 8 (Homo sapiens) (UniProt P29322); settings: Compound concentration 1000.0 nM
[14] = molecular target: Receptor tyrosine-protein kinase erbB-4 (Homo sapiens) (UniProt Q15303); settings: Compound concentration 1000.0 nM
[15] = molecular target: Rhodopsin kinase GRK1 (Homo sapiens) (UniProt Q15835); settings: Compound concentration 1000.0 nM
[16] = molecular target: Inhibitor of nuclear factor kappa-B kinase subunit epsilon (Homo sapiens) (UniProt Q14164); settings: Compound concentration 1000.0 nM
Chain of Inhibitor of nuclear factor kappa-B kinase subunit epsilon (Homo sapiens) (Q14164 whole entry): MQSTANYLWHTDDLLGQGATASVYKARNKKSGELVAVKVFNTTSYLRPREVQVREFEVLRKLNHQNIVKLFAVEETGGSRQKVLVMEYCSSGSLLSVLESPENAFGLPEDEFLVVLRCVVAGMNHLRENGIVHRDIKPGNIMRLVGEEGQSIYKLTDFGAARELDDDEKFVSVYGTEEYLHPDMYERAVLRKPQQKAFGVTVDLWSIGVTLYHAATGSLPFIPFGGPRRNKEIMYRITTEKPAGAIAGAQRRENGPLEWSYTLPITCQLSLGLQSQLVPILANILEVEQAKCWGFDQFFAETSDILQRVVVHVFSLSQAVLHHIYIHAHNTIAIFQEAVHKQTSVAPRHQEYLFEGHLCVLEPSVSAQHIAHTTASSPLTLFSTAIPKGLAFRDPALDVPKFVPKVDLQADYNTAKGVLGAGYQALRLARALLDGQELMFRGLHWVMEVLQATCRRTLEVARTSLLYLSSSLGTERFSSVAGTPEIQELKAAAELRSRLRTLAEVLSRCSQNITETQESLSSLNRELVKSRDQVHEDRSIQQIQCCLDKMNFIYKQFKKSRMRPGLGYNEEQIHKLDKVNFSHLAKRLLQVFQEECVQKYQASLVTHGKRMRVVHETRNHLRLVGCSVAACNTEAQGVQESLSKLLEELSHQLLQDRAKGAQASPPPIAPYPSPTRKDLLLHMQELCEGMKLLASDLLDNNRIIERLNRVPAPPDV

[17] = molecular target: Insulin receptor-related protein (Homo sapiens) (UniProt P14616); settings: Compound concentration 1000.0 nM
[18] = molecular target: Tyrosine-protein kinase JAK3 (Homo sapiens) (UniProt P52333); settings: Compound concentration 1000.0 nM
[19] = molecular target: Mast/stem cell growth factor receptor Kit (Homo sapiens) (UniProt P10721); settings: Compound concentration 1000.0 nM
[20] = molecular target: Microtubule-associated serine/threonine-protein kinase 1 (Homo sapiens) (UniProt Q9Y2H9); settings: Compound concentration 1000.0 nM
Chain of Microtubule-associated serine/threonine-protein kinase 1 (Homo sapiens) (Q9Y2H9 whole entry, looked up): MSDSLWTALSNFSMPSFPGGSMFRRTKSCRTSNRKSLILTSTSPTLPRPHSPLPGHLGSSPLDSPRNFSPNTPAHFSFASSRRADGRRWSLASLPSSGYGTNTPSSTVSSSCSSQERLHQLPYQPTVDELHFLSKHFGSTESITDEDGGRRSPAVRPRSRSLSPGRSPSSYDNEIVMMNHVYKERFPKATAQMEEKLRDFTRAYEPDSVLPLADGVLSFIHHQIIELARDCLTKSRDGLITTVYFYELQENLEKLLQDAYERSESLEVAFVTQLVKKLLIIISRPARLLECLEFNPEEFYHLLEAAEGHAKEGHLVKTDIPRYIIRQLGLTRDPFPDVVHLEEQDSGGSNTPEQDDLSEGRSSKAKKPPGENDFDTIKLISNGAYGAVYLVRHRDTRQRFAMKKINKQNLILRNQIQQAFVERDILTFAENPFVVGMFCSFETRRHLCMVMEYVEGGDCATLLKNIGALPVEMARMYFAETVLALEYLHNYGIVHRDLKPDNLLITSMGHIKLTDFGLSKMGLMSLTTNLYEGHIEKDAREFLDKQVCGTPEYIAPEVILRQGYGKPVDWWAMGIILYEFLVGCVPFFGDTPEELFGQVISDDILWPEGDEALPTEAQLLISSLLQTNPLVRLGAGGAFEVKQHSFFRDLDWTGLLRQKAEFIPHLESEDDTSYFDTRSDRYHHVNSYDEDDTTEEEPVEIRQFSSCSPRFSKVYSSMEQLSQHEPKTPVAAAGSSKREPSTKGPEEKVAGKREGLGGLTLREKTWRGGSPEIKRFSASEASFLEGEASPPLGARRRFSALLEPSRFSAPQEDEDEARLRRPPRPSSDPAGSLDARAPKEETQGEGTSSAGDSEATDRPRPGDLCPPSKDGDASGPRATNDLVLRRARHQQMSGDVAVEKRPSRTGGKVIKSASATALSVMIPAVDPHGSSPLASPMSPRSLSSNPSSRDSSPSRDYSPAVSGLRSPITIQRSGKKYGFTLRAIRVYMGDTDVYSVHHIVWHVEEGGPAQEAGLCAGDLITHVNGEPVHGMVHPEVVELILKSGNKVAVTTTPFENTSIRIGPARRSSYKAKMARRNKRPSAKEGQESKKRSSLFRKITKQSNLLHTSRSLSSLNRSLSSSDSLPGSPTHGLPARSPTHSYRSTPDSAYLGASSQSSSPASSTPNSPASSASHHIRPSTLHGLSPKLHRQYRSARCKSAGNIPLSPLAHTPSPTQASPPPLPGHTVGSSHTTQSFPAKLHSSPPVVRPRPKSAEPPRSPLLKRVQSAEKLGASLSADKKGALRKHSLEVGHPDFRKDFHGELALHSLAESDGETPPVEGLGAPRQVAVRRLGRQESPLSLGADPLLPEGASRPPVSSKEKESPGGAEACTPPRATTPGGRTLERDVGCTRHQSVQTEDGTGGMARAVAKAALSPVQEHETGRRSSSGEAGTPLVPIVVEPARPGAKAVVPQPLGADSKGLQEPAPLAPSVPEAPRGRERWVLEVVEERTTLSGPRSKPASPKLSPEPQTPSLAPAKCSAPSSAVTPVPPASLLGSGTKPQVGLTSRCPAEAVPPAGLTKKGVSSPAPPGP

[21] = tested on: Hepatocyte growth factor receptor (Homo sapiens), P08581 [Y1235D]; settings: Compound concentration 1000.0 nM
[22] = molecular target: Dual specificity mitogen-activated protein kinase kinase 7 (Homo sapiens) (UniProt O14733); settings: Compound concentration 1000.0 nM
[23] = molecular target: Serine/threonine-protein kinase MRCK alpha (Homo sapiens) (UniProt Q5VT25); settings: Compound concentration 1000.0 nM
[24] = molecular target: Serine/threonine-protein kinase PAK 4 (Homo sapiens) (UniProt O96013); settings: Compound concentration 1000.0 nM
[25] = molecular target: Serine/threonine-protein kinase PAK 5 (Homo sapiens) (UniProt Q9P286); settings: Compound concentration 1000.0 nM
[26] = molecular target: Phosphatidylinositol 4-phosphate 5-kinase type-1 alpha (Homo sapiens) (UniProt Q99755); settings: Compound concentration 1000.0 nM
[27] = molecular target: Membrane-associated tyrosine- and threonine-specific cdc2-inhibitory kinase (Homo sapiens) (UniProt Q99640); settings: Compound concentration 1000.0 nM
[28] = molecular target: Receptor-interacting serine/threonine-protein kinase 2 (Homo sapiens) (UniProt O43353); settings: Compound concentration 1000.0 nM
[29] = molecular target: Receptor-interacting serine/threonine-protein kinase 4 (Homo sapiens) (UniProt P57078); settings: Compound concentration 1000.0 nM
[30] = molecular target: Ribosomal protein S6 kinase alpha-1 (Homo sapiens) (UniProt Q15418); settings: Compound concentration 1000.0 nM
Chain of Ribosomal protein S6 kinase alpha-1 (Homo sapiens) (Q15418 whole entry): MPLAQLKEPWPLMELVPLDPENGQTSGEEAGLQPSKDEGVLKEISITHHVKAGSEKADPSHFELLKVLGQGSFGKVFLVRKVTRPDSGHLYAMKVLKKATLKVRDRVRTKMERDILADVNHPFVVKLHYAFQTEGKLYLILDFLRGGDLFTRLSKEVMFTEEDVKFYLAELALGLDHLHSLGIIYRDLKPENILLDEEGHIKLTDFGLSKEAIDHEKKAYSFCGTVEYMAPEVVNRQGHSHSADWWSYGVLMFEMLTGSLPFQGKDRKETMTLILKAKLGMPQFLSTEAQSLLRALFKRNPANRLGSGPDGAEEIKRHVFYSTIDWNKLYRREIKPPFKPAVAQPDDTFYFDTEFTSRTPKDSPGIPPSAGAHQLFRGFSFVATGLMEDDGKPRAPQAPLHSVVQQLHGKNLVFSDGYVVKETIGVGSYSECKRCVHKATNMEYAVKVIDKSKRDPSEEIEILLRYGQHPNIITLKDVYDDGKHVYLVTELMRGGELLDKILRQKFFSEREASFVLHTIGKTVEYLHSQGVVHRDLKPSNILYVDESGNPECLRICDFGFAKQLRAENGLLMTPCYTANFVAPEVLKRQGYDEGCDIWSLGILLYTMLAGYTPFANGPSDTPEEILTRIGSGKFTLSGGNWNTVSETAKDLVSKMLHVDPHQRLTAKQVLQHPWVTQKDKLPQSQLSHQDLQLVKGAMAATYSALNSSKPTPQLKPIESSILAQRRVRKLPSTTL

[31] = molecular target: Ribosomal protein S6 kinase alpha-1 (Homo sapiens) (UniProt Q15418); settings: Compound concentration 1000.0 nM; remark: listed apart in the source
[32] = molecular target: Serine/threonine-protein kinase tousled-like 1 (Homo sapiens) (UniProt Q9UKI8); settings: Compound concentration 1000.0 nM
[33] = molecular target: Dual specificity protein kinase TTK (Homo sapiens) (UniProt P33981); settings: Compound concentration 1000.0 nM
[34] = molecular target: Serine/threonine-protein kinase WNK4 (Homo sapiens) (UniProt Q96J92); settings: Compound concentration 1000.0 nM
[35] = molecular target: T1, 5-hydroxytryptamine receptor 1A (Homo sapiens) (UniProt P08908); settings: Compound concentration 10.0 uM
T1 sequence (whole entry): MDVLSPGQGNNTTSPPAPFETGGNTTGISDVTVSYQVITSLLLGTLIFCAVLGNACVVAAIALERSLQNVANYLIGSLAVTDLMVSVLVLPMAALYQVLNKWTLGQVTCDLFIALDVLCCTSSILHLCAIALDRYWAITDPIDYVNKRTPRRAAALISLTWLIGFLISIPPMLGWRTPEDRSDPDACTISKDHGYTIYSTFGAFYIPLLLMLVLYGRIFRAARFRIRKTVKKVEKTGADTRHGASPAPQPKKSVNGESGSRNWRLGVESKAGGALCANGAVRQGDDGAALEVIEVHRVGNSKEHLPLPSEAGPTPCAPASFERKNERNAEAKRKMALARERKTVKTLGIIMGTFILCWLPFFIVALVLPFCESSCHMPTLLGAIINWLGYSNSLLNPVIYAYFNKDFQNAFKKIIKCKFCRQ

[36] = molecular target: 5-hydroxytryptamine receptor 2B (Homo sapiens) (UniProt P41595); settings: Compound concentration 10.0 uM
[37] = molecular target: Kappa-type opioid receptor (Homo sapiens) (UniProt P41145); settings: Compound concentration 10.0 uM
[38] = molecular target: Histamine H4 receptor (Homo sapiens) (UniProt Q9H3N8); settings: Compound concentration 10.0 uM
[39] = molecular target: Alpha-2C adrenergic receptor (Homo sapiens) (UniProt P18825); settings: Compound concentration 10.0 uM
Chain of Alpha-2C adrenergic receptor (Homo sapiens) (P18825 whole entry): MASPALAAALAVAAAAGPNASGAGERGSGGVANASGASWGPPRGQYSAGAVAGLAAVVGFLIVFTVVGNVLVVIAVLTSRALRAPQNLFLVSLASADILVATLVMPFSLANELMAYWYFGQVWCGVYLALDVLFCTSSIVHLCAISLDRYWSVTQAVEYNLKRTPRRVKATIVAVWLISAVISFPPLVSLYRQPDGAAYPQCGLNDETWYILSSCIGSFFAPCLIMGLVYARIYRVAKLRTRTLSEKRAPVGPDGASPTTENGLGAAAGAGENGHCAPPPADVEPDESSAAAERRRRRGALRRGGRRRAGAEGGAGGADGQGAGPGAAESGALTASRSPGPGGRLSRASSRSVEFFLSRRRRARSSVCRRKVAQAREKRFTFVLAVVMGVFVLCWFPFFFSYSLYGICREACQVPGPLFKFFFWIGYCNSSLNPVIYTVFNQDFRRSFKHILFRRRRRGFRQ

Chain of D(1A) dopamine receptor (Homo sapiens) (P21728 whole entry): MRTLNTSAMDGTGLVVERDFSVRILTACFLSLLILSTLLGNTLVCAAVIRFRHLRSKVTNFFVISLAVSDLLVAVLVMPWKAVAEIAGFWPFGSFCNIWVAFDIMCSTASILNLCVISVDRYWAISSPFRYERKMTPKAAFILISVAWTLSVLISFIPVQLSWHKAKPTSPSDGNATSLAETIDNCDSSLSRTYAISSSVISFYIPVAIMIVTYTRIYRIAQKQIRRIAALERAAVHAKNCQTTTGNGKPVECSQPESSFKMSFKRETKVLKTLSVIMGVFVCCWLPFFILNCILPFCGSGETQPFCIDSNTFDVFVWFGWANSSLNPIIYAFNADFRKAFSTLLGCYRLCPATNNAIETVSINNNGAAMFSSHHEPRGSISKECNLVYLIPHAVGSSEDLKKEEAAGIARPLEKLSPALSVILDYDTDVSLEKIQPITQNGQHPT

Row | SMILES | % Inhibition of Control Agonist Response (Mean n=2) [1] [%] | % of Control Agonist Response (Mean n=2) [1] [%] | residual activity [2] [%] | residual activity [3] [%] | residual activity [4] [%] | residual activity [5] [%] | residual activity [6] [%] | residual activity [7] [%] | residual activity [8] [%] | residual activity [9] [%] | residual activity [10] [%] | residual activity [11] [%] | residual activity [12] [%] | residual activity [13] [%] | residual activity [14] [%] | residual activity [15] [%] | residual activity [16] [%] | residual activity [17] [%] | residual activity [18] [%] | residual activity [19] [%] | also measured
1 | O=C(N1CCS(=O)(=O)CC1)N1C[C@H](c2ccc(OC(F)(F)F)cc2)C[C@H](c2nc(C3CC3)no2)C1 [BAY-386] | -31.6 | -1.4 | 100 | 100 | 100 | 100 | 99 | 100 | 100 | 100 | 100 | 100 | 96 | 100 | 95 | 92 | 100 | 97 | 100 | 100 | residual activity [20]: 100%; residual activity [21]: 100%; residual activity [22]: 100%; residual activity [23]: 100%; residual activity [24]: 100%; residual activity [25]: 100%; residual activity [26]: 100%; residual activity [27]: 100%; residual activity [28]: 90%; residual activity [29]: 97%; residual activity [30]: 100%; residual activity [31]: 100%; residual activity [32]: 94%; residual activity [33]: 82%; residual activity [34]: 100%; inhibition [35]: 14.7%; inhibition [36]: 17.1%; inhibition [37]: 1.29%; inhibition [38]: -4.72%; inhibition [39]: 11.6%
2 | Cc1noc([C@H]2C[C@@H](c3ccc(C(F)(F)F)cc3)CN(C(=O)N3CCS(=O)(=O)C3)C2)n1 [BAY-448] | 13.9 | -1.2 | 100 | 69 | 100 | 85 | 100 | 100 | 93 | 100 | 100 | 100 | 100 | 100 | 100 | 82 | 100 | 100 | 100 | 84 | residual activity [20]: 100%; residual activity [21]: 100%; residual activity [22]: 100%; residual activity [23]: 100%; residual activity [24]: 100%; residual activity [25]: 100%; residual activity [26]: 88%; residual activity [27]: 100%; residual activity [28]: 100%; residual activity [29]: 68%; residual activity [30]: 87%; residual activity [31]: 100%; residual activity [32]: 100%; residual activity [33]: 100%; residual activity [34]: 100%; inhibition [35]: -4.52%; inhibition [36]: 16.8%; inhibition [37]: 7.69%; inhibition [38]: -2.74%; inhibition [39]: 10.5%

From ChEMBL document CHEMBL4507269, “Data for DCP probe BAY-386” (2021)
